From patent publication US20230053688A1, “METHODS TO ALTER LATENCY IN EBV+ MALIGNANCIES” (Cornell University, priority 2020, published 2023)
Where a name gives a salt, the structure may show the parent alone. Read-outs that look alike come from different tables or passages of the source.

Tested on: LMP1 expression in Kem I cells
Test: microbe, parasite or virus in culture
Type: cell-based, EBV
Conditions: for fold induction at 2.5 µM / fold induction at 1 µM: human gammaherpesvirus 4, 48 h
[1] = Kem I cells, dose 2.5 uM, 48 hours, LMP1 transcript by in-well qRT-PCR, average of the two replicates
[2] = Kem I cells, dose 2.5 uM, 48 hours, LMP1 transcript by in-well qRT-PCR, screen replicate 1
[3] = Kem I cells, dose 2.5 uM, 48 hours, LMP1 transcript by in-well qRT-PCR, screen replicate 2
[4] = read-out: Average LMP1 Fold Increase, Kem I cells, 2.5 uM, 48 hours, average of replicates 1 and 2
[5] = read-out: Replicate 1-LMP1 Fold Increase, Kem I cells, 2.5 uM, 48 hours, fold change in LMP1 transcript vs vehicle
[6] = read-out: Replicate 2-LMP1 Fold Increase, Kem I cells, 2.5 uM, 48 hours, fold change in LMP1 transcript vs vehicle
[7] = Kem I cells, 2.5 uM, 48 hours, average of replicates 1 and 2
[8] = Kem I cells, 2.5 uM, 48 hours, fold change in LMP1 transcript vs vehicle

## Nc1cccc(-c2cc3c(Oc4cccc(O)c4)ncnc3[nH]2)c1 [TWS119]
[1]
  Average LMP1 Fold Increase: 0.56 fold
[2]
  Replicate 1-LMP1 Fold Increase: 0.62 fold
[3]
  Replicate 2-LMP1 Fold Increase: 0.49 fold

## C=C1C[C@@H]2[C@H](CC[C@]3(C)C(=O)CC[C@@H]23)[C@@]2(C)C=CC(=O)C=C12 [Exemestane]
[4]
  fold induction at 2.5 µM: 0.7
[5]
  fold induction at 2.5 µM: 0.53
[6]
  fold induction at 2.5 µM: 0.86

## CCOc1nc2cccc(C(=O)O)c2n1Cc1ccc(-c2ccccc2-c2nnn[nH]2)cc1 [Candesartan]
[4]
  fold induction at 2.5 µM: 0.43
[5]
  fold induction at 2.5 µM: 0.34
[6]
  fold induction at 2.5 µM: 0.52

## Cl.Cl.NC1(c2ccc(-c3nc4ccn5c(=O)[nH]nc5c4cc3-c3ccccc3)cc2)CCC1 [MK-2206 2HCl]
[7]
  Average LMP1 Fold Increase: 0.51
[8]
  Replicate 1-LMP1 Fold Increase: 0.44
  Replicate 2-LMP1 Fold Increase: 0.59

## Cc1ccc(-n2nccn2)c(C(=O)N2CCN(c3nc4cc(Cl)ccc4o3)CC[C@H]2C)c1 [Suvorexant (MK-4305)]
[1]
  Average LMP1 Fold Increase: 1.47 fold
[2]
  Replicate 1-LMP1 Fold Increase: 0.37 fold
[3]
  Replicate 2-LMP1 Fold Increase: 2.57 fold

## CCOC(=O)[C@H](CCc1ccccc1)N[C@@H](C)C(=O)N1C(=O)N(C)C[C@H]1C(=O)O [Imidapril HCl]
[4]
  fold induction at 2.5 µM: 0.66
[5]
  fold induction at 2.5 µM: 0.88
[6]
  fold induction at 2.5 µM: 0.44

## CC(C)c1noc(N2CCC(COc3ccc(-c4ccc(S(C)(=O)=O)cc4)nc3)CC2)n1 [GSK1292263]
[7]
  Average LMP1 Fold Increase: 0.27
[8]
  Replicate 1-LMP1 Fold Increase: 0.20
  Replicate 2-LMP1 Fold Increase: 0.34

## Cc1cc(Nc2cc(CN3CCOCC3)c3nc(C)c(Cc4ccc(Cl)cc4F)n3n2)n[nH]1 [LY2784544]
[7]
  Average LMP1 Fold Increase: 0.94
[8]
  Replicate 1-LMP1 Fold Increase: 1.24
  Replicate 2-LMP1 Fold Increase: 0.65

## O=C(O[C@H]1C[C@H]2CC[C@@H](C1)[N+]21CCCC1)C(O)(c1ccccc1)c1ccccc1 [Trospium chloride]
read-out: Average LMP1 Fold Increase, Kem I cells, dose 2.5 uM, 48 hours, LMP1 transcript by in-well qRT-PCR, average of the two replicates
  fold induction at 2.5 µM: 0.35
read-out: Replicate 1-LMP1 Fold Increase, Kem I cells, dose 2.5 uM, 48 hours, LMP1 transcript by in-well qRT-PCR, screen replicate 1
  fold induction at 2.5 µM: 0.33
read-out: Replicate 2-LMP1 Fold Increase, Kem I cells, dose 2.5 uM, 48 hours, LMP1 transcript by in-well qRT-PCR, screen replicate 2
  fold induction at 2.5 µM: 0.37

## Oc1ccc2ccccc2c1SSc1c(O)ccc2ccccc12 [IPA-3]
[7]
  Average LMP1 Fold Increase: 0.27
[8]
  Replicate 1-LMP1 Fold Increase: 0.21
  Replicate 2-LMP1 Fold Increase: 0.33

## CHIR-98014
  Average LMP1 Fold Increase: 0.67
  Replicate 1-LMP1 Fold Increase: 0.81
  Replicate 2-LMP1 Fold Increase: 0.54

## CC[C@H](NC(=O)[C@H](C)NC)C(=O)N1C[C@@H](O)C[C@H]1Cc1c(-c2[nH]c3cc(F)ccc3c2C[C@@H]2C[C@H](O)CN2C(=O)[C@H](CC)NC(=O)[C@H](C)NC)[nH]c2cc(F)ccc12 [Birinapant]
[4]
  fold induction at 2.5 µM: 1.03
[5]
  fold induction at 2.5 µM: 1.05
[6]
  fold induction at 2.5 µM: 1.02

## I-BET151 (GSK1210151A)
[7]
  Average LMP1 Fold Increase: 1.39
[8]
  Replicate 1-LMP1 Fold Increase: 1.41
  Replicate 2-LMP1 Fold Increase: 1.38

## COC1=CC(c2cc3ccccc3[nH]2)=N/C1=C\c1[nH]c(C)cc1C [Obatoclax]
read-out: Average LMP1 Fold Increase, Kem I cells, 1 uM, 48 hours, average of replicates 1 and 2
  fold induction at 1 µM: 13.7
read-out: Replicate 1-LMP1 Fold Increase, Kem I cells, 1 uM, 48 hours, fold change in LMP1 transcript vs vehicle
  fold induction at 1 µM: 24.3
read-out: Replicate 2-LMP1 Fold Increase, Kem I cells, 1 uM, 48 hours, fold change in LMP1 transcript vs vehicle
  fold induction at 1 µM: 3.03

## Cl.Cl.Cl.O[C@@H](COc1cccc2ncccc12)CN1CCN([C@@H]2c3ccccc3[C@@H]3[C@H](c4ccccc42)C3(F)F)CC1 [Zosuquidar (LY335979) 3HCl]
[1]
  Average LMP1 Fold Increase: 0.79 fold
[2]
  Replicate 1-LMP1 Fold Increase: 0.64 fold
[3]
  Replicate 2-LMP1 Fold Increase: 0.94 fold

## N#CC1(c2ccc(NC(=O)c3cccnc3NCc3ccncc3)cc2)CCCC1 [Apatinib]
[4]
  fold induction at 2.5 µM: 0.87
[5]
  fold induction at 2.5 µM: 1.23
[6]
  fold induction at 2.5 µM: 0.5

## NC(=O)c1ccc(-c2nc(-c3ccccn3)c(-c3ccc4c(c3)OCO4)[nH]2)cc1 [SB431542]
[7]
  Average LMP1 Fold Increase: 0.71
[8]
  Replicate 1-LMP1 Fold Increase: 0.82
  Replicate 2-LMP1 Fold Increase: 0.61

## CCc1cc(Nc2nccc(-c3c(-c4ccc(OC)c(C(=O)Nc5c(F)cccc5F)c4)nc4ccccn34)n2)c(OC)cc1N1CCC(N2CCN(S(C)(=O)=O)CC2)CC1 [GSK1904529A]
[7]
  Average LMP1 Fold Increase: 0.20
[8]
  Replicate 1-LMP1 Fold Increase: 0.18
  Replicate 2-LMP1 Fold Increase: 0.23

## CC(C)(C#N)c1cc(Cn2cncn2)cc(C(C)(C)C#N)c1 [Anastrozole]
[4]
  fold induction at 2.5 µM: 0.94
[5]
  fold induction at 2.5 µM: 0.45
[6]
  fold induction at 2.5 µM: 1.42

## CCN(CC)C(=O)c1ccc(C2=CC3(CCNCC3)Oc3cccc(O)c32)cc1 [ADL5859 HCl]
[4]
  fold induction at 2.5 µM: 1.02
[5]
  fold induction at 2.5 µM: 0.54
[6]
  fold induction at 2.5 µM: 1.5

## COc1ccnc2[nH]cc(C(=O)C(=O)N3CCN(C(=O)c4ccccc4)C[C@H]3C)c12 [BMS-378806]
[7]
  Average LMP1 Fold Increase: 0.64
[8]
  Replicate 1-LMP1 Fold Increase: 0.75
  Replicate 2-LMP1 Fold Increase: 0.53

## O=C(NC(Cc1cc(=O)[nH]c2ccccc12)C(=O)O)c1ccc(Cl)cc1 (stereo not drawn) [Rebamipide]
[4]
  fold induction at 2.5 µM: 0.85
[5]
  fold induction at 2.5 µM: 0.48
[6]
  fold induction at 2.5 µM: 1.23

## CCOC(=O)c1ccc(NC2CCCCC2)c(N)c1 [Ferrostatin-1 (Fer-1)]
[7]
  Average LMP1 Fold Increase: 0.22
[8]
  Replicate 1-LMP1 Fold Increase: 0.24
  Replicate 2-LMP1 Fold Increase: 0.19

## COc1ccc(C(=O)Nc2sc3c(c2C(N)=O)CCCC3)cc1OC [TCS 359]
[1]
  Average LMP1 Fold Increase: 0.40 fold
[2]
  Replicate 1-LMP1 Fold Increase: 0.62 fold
[3]
  Replicate 2-LMP1 Fold Increase: 0.19 fold

## CCn1c(N)c(C(=O)NC)c(=O)c2ccc(C#C[C@@](C)(O)COC)nc21 [SAR131675]
[7]
  Average LMP1 Fold Increase: 0.40
[8]
  Replicate 1-LMP1 Fold Increase: 0.30
  Replicate 2-LMP1 Fold Increase: 0.49

## Nc1ncnc2c1c(-c1cccc(OCc3ccccc3)c1)cn2C1CC(CN2CCCC2)C1 (stereo not drawn) [NVP-ADW742]
[7]
  Average LMP1 Fold Increase: 0.40
[8]
  Replicate 1-LMP1 Fold Increase: 0.27
  Replicate 2-LMP1 Fold Increase: 0.53

## CC1=C(/C=C/C(C)=C/C=C/C(C)=C\C(=O)O)C(C)(C)CCC1 [Isotretinoin]
[4]
  fold induction at 2.5 µM: 1.76
[5]
  fold induction at 2.5 µM: 1.42
[6]
  fold induction at 2.5 µM: 2.1

## CNC(=O)c1cc(Oc2ccc(NC(=O)Nc3ccc(Cl)c(C(F)(F)F)c3)cc2)ccn1 [Sorafenib]
[4]
  fold induction at 2.5 µM: 0.54
[5]
  fold induction at 2.5 µM: 0.43
[6]
  fold induction at 2.5 µM: 0.64

## COc1cc(Nc2c(C#N)cnc3cc(OCCCN4CCN(C)CC4)c(OC)cc23)c(Cl)cc1Cl [Bosutinib (SKI-606)]
[7]
  Average LMP1 Fold Increase: 0.81
[8]
  Replicate 1-LMP1 Fold Increase: 0.36
  Replicate 2-LMP1 Fold Increase: 1.26

## CCCS(=O)(=O)Nc1ccc(F)c(C(=O)c2c[nH]c3ncc(-c4ccc(Cl)cc4)cc23)c1F [Vemurafenib (PLX4032, RG7204)]
[1]
  Average LMP1 Fold Increase: 0.41 fold
[2]
  Replicate 1-LMP1 Fold Increase: 0.33 fold
[3]
  Replicate 2-LMP1 Fold Increase: 0.50 fold

## (−)-MK 801 Maleate
[7]
  Average LMP1 Fold Increase: 0.88
[8]
  Replicate 1-LMP1 Fold Increase: 0.94
  Replicate 2-LMP1 Fold Increase: 0.81

## COc1cc(OC2CCN(C)CC2)ccc1Nc1ncc2c(n1)n(C1CCCC1)c(=O)n2C [AZ 3146]
[7]
  Average LMP1 Fold Increase: 0.61
[8]
  Replicate 1-LMP1 Fold Increase: 0.66
  Replicate 2-LMP1 Fold Increase: 0.57

## O=C(c1ccc(F)cc1)N1CCC[C@H](c2nc(-c3ccc(F)cc3)no2)C1 [ADX-47273]
[7]
  Average LMP1 Fold Increase: 0.58
[8]
  Replicate 1-LMP1 Fold Increase: 0.81
  Replicate 2-LMP1 Fold Increase: 0.35

## Cc1ccc(NC(=O)c2ccc(CN3CCN(C)CC3)cc2)cc1Nc1nccc(-c2cccnc2)n1 [Imatinib (STI571)]
[7]
  Average LMP1 Fold Increase: 0.42
[8]
  Replicate 1-LMP1 Fold Increase: 0.60
  Replicate 2-LMP1 Fold Increase: 0.25
